Test results as given in publication PMC11502347 (Frontiers in Microbiology, 2024).
In brackets after ≈: the same amount, converted by molar mass.

What was measured:
[1] = test system: Mtb CF 61 (MDR); type: cell-based, Mycobacterium tuberculosis; conditions: MDR clinical isolate; REMA, 7 days
[2] = test system: Mtb CF 48 (MDR); type: cell-based, Mycobacterium tuberculosis; conditions: MDR clinical isolate; REMA, 7 days
[3] = test system: Mtb CF 165 (MDR); type: cell-based, Mycobacterium tuberculosis; conditions: MDR clinical isolate; REMA, 7 days
[4] = test system: Mtb CF 171 (MDR); type: cell-based, Mycobacterium tuberculosis; conditions: MDR clinical isolate; REMA, 7 days
[5] = test system: Mtb CF 162 (MDR); type: cell-based, Mycobacterium tuberculosis; conditions: MDR clinical isolate; REMA, 7 days
[6] = test system: Mtb CF 105 (MDR); type: cell-based, Mycobacterium tuberculosis; conditions: MDR clinical isolate; REMA, 7 days
[7] = test system: Mtb CF 169 (Pre-XDR); type: cell-based, Mycobacterium tuberculosis; conditions: Pre-XDR clinical isolate; REMA, 7 days
[8] = test system: Mtb CF 81 (Pre-XDR); type: cell-based, Mycobacterium tuberculosis; conditions: Pre-XDR clinical isolate; REMA, 7 days
[9] = test system: Mtb H37Rv; experiment: microbe, parasite or virus in culture; type: cell-based, Mycobacterium tuberculosis; conditions: for CIM90 Mtb H37Rv: Sensitive strain, REMA, 7 days; for MIC90: Mycobacterium tuberculosis, H37RV, Table 3
[10] = test system: M. smegmatis; type: cell-based, Mycobacterium smegmatis; conditions: Sensitive; REMA, 2 days
[11] = test system: M. bovis; type: cell-based, Mycobacterium bovis; conditions: Sensitive; REMA, 7 days
[12] = test system: Klebsiella pneumoniae subsp. pneumoniae ATCC 13883 T; experiment: microbe, parasite or virus in culture; type: cell-based; conditions: ATCC13883
[13] = test system: Klebsiella oxytoca CCT 0182; experiment: microbe, parasite or virus in culture; type: cell-based; conditions: CCT0182
[14] = test system: Staphylococcus saprophyticus subsp. saprophyticus ATCC 15305; experiment: microbe, parasite or virus in culture; type: cell-based; conditions: ATCC15305
[15] = test system: Staphylococcus epidermidis ATCC 14990 T; experiment: microbe, parasite or virus in culture; type: cell-based; conditions: ATCC14990
[16] = test system: Enterobacter cloacae subsp. cloacae ATCC 13883 T; experiment: microbe, parasite or virus in culture; type: cell-based; conditions: ATCC13883
[17] = test system: Enterobacter aerogenes ATCC 13048 T; experiment: microbe, parasite or virus in culture; type: cell-based; conditions: Klebsiella aerogenes, ATCC13048
[18] = test system: Enterococcus faecium NCTC 7171 T; experiment: microbe, parasite or virus in culture; type: cell-based; conditions: NCTC7171
[19] = test system: Enterococcus faecalis ATCC 29212; experiment: microbe, parasite or virus in culture; type: cell-based; conditions: ATCC29212
[20] = test system: Proteus mirabilis ATCC 29906 T; experiment: microbe, parasite or virus in culture; type: cell-based; conditions: ATCC29906
[21] = test system: Citrobacter freundii ATCC 8030 T; experiment: microbe, parasite or virus in culture; type: cell-based; conditions: ATCC8030
[22] = test system: Candida albicans ATCC 90028; experiment: microbe, parasite or virus in culture; type: cell-based; conditions: ATCC90028, Sabouraud broth, 48 h
[23] = test system: Gram-negative, Gram-positive bacteria, and fungi, including Candida albicans; experiment: microbe, parasite or virus in culture; type: cell-based; conditions: all the bacterial and fungal strains tested (Table 2), read-out: MIC90 for all species analyzed
[24] = test system: Murine macrophage J774.A1; experiment: cells; type: cell-based; conditions: Mus musculus, cytotoxicity, resazurin, exposure 24 and 72 h, which one not given
[25] = test system: MRC-5 fibroblasts; experiment: cells; type: cell-based; conditions: Homo sapiens, MRC5; cytotoxicity, resazurin; exposure 24 and 72 h, which one not given
[26] = test system: Mtb H37Rv; experiment: Checkerboard assay of Bfx with RFP; type: cell-based, Mycobacterium tuberculosis; conditions: for MIC90: Mycobacterium tuberculosis, H37RV, compound alone, Table S1
Procedure: To evaluate the interaction between Bfx and RFP, a checkerboard assay was conducted following the methodology proposed by Berenbaum ([Berenbaum, 1978]).Test compounds were serially diluted in Middlebrook 7H9 broth and arranged in a 96-well plate, starting with 2x MIC for each compound. RFP was also diluted horizontally based on its MIC90. The combinations of different concentrations of Bfx and RFP were incubated with Mtb (5 × 10⁵ CFU/mL) at 37°C and 5% CO₂ for 7 days. Post-incubation, 0.01% resazurin was added, and fluorescence readings were taken after 24 h to determine the Fractional Inhibitory Concentration Index (FICI). The combined effects of the compound combinations were classified according to the Fractional Inhibitory Concentration Index (FICI):
FICI=MICofdrug1incombination/MICofdrug1+MICofdrug2incombination/MICofdrug1

[27] = test system: intracellular Mtb H37Rv in J774.A1 macrophages; experiment: Intracellular antimycobacterial activity in infected macrophages; type: cell-based, Mycobacterium tuberculosis; conditions: 10x MIC, 72 h, CFU count
Procedure: Murine macrophage J774.A1 cells (1 × 10^6 cells/mL) were seeded in 24-well plates and incubated as previously described. After 24 h, the supernatant was discarded, and 1 mL of Mtb inoculum (2 × 10^6 CFU/mL) was added to the wells. The plate was incubated for 2 h to facilitate infection. Subsequently, the supernatant was removed, and the cells were washed with PBS. An amikacin solution (200 μg/mL) was added to ensure the sterility of the extracellular environment. After 2 h, the wells were washed, and treatments were applied (1x, 5x, and 10x MIC90 of Bfx or RFP). The cultures were then incubated for 72 h. After incubation, the cells were lysed using a Triton solution, and the supernatant was collected, serially diluted, and plated on Middlebrook 7H11 medium supplemented with 10% OADC. These plates were incubated for 20–30 days until colony-forming units (CFU) were counted ([Solcia et al., 2021]).

[28] = test system: Mtb H37Rv; experiment: In vivo infection and treatment, BALB/c mice; conditions: daily oral 4 weeks, 5n 200 mg/kg, RFP 15 mg/kg; for reduction of bacterial load in the lungs: intranasal infection, 5b; for reduction of the pulmonary load: abstract
[29] = test system: intramacrophagic Mtb; set-up: method as in Matsumoto et al. (2006); conditions: at a concentration of 1 μg/mL; experimental conditions not identical; ref Matsumoto et al. (2006); cited from earlier work

Compound	CIM90 CF 61 [1]	CIM90 CF 48 [2]	CIM90 CF 165 [3]	CIM90 CF 171 [4]	CIM90 CF 162 [5]	CIM90 CF 105 [6]	CIM90 CF 169 [7]	CIM90 CF 81 [8]	CIM90 Mtb H37Rv [9]	CIM90 M. smegmatis [10]	CIM90 M. bovis [11]	MIC90 [9] [µM]	MIC90 [12] [µM]	MIC90 [13] [µM]	MIC90 [14] [µM]	MIC90 [15] [µM]	MIC90 [16] [µM]	MIC90 [17] [µM]	MIC90 [18] [µM]	MIC90 [19] [µM]	other results
NCC[C@H](O)C(=O)N[C@@H]1C[C@H](N)[C@@H](O[C@H]2O[C@H](CN)[C@@H](O)[C@H](O)[C@H]2O)[C@H](O)[C@H]1O[C@H]1O[C@H](CO)[C@@H](O)[C@H](N)[C@H]1O [AMK, amikacin]	> 42,69 μM	12,27 ± 6,77 μM	5,33 ± 0,95 μM	0,24 ± 0,10 μM	> 42,69 μM	7,54 ± 11,48 μM	0,36 ± 0,11 μM	19,52 ± 12,55 μM	3,0 ± 1,00 μM	6,0 ± 2,00 μM	1,5 ± 0,50 μM										
O=C(Nc1ccc(N2CCSCC2)c(F)c1)c1ccc2no[n+]([O-])c2c1 [Compound 5b]	0,28 ± 0,02 μM	22,76 ± 13,20 μM				> 66,78 μM	0,40 ± 0,03 μM	0,27 ± 0,00 μM		24,17 ± 13,00 μM		0.7 (≈ 0.262 µg/mL)	> 200	> 200	> 200	> 200	> 200	> 200	> 200	> 200	MIC90 [20]: > 200 µM; MIC90 [21]: > 200 µM; MIC90 [22]: > 200 µM; MIC90 [23]: > 200 µM; IC50 [24]: 40.8 µM; IC50 [25]: 57.1 µM; FICI ([26]; Bfx combined with RFP): 0.11; Results (interaction with RFP) ([26]; Bfx combined with RFP): Synergistic (FICI values less than 0.5 indicate synergy); MIC90 [26]: 0.7 µM; MIC90 combined ([26]; in the combination 5b + RFP): 0,0625 µM; inhibition of bacterial load within macrophages [27]: 2.3 log10; reduction of bacterial load in the lungs [28]: 1.45 log10
O=C(Nc1ccc(N2CCN(c3ccccn3)CC2)c(F)c1)c1ccc2no[n+]([O-])c2c1 [Compound 5n]	0,56 ± 0,47 μM	22.38 ± 9.37 µM	1,84 ± 1,73 μM	0,26 ± 0,05 μM	2,24 ± 1,47 μM	> 57,26 μM		1,68 ± 1,32 μM		41,07 ± 10,05 μM	27,03 ± 10,43 μM	0.09 (≈ 0.0391 µg/mL)	> 200	> 200	> 200	> 200	> 200	> 200	> 200	> 200	MIC90 [20]: > 200 µM; MIC90 [21]: > 200 µM; MIC90 [22]: > 200 µM; MIC90 [23]: > 200 µM; IC50 [24]: > 230 µM; IC50 [25]: > 222 µM; Results (interaction with RFP) ([26]; Bfx combined with RFP): Synergistic (FICI values less than 0.5 indicate synergy); MIC90 [26]: 0.09 µM; MIC90 combined ([26]; in the combination 5n + RFP): 0,00578 µM; inhibition of bacterial load within macrophages [27]: 0.9 log10; reduction of the pulmonary load [28]: 3.0 log10 CFU/mL; reduction of bacterial load in the lungs [28]: 3.0 log10
NNC(=O)c1ccncc1 [INH, isoniazid]	> 182,30 μM	> 182,30 μM	71,56 ± 24,71 μM	> 182,30 μM	> 182,30 μM	> 182,30 μM	> 182,30 μM	> 182,30 μM	0,95 ± 0,43 μM	2,0 ± 0,50 μM		0.95 (≈ 0.13 µg/mL)	> 500	> 500	> 500	> 500	> 500	> 500	> 500	> 500	MIC90 [20]: > 500 µM; MIC90 [21]: > 500 µM; IC50 [24]: > 729 µM; IC50 [25]: > 729 µM
CC(=O)NC[C@H]1CN(c2ccc(N3CCOCC3)c(F)c2)C(=O)O1 [LNZ, linezolid]		33,88 ± 1,27 μM	0,95 ± 0,01 μM	0,58 ± 0,02 μM	0,41 ± 0,03 μM	4,15 ± 0,52 μM	0,95 ± 0,59 μM	0,47 ± 0,32 μM	0,5 ± 0,20 μM	1,0 ± 0,20 μM	0,25 ± 0,1 μM										
CO[C@H]1/C=C/O[C@@]2(C)Oc3c(C)c(O)c4c(O)c(c(/C=N/N5CCN(C)CC5)c(O)c4c3C2=O)NC(=O)/C(C)=C\C=C\[C@H](C)[C@H](O)[C@@H](C)[C@@H](O)[C@@H](C)[C@H](OC(C)=O)[C@@H]1C [RFP, rifampicin]	> 30,38 μM	> 30,38 μM	> 30,38 μM	> 30,38 μM	> 30,38 μM	> 30,38 μM	6,95 ± 0,19 μM	> 30,38 μM	0,05 ± 0,01 μM	1,21 ± 0,00 μM	0,10 ± 0,01 μM	0.05 (≈ 0.0411 µg/mL)	5.1 (≈ 4.2 µg/mL)	7.5 (≈ 6.17 µg/mL)	0.009 (≈ 0.00741 µg/mL)	0.001 (≈ 0.000823 µg/mL)	> 100	> 100	> 100	0.004 (≈ 0.00329 µg/mL)	MIC90 [20]: 19.4 µM (≈ 16 µg/mL); MIC90 [21]: 38.9 µM (≈ 32 µg/mL); IC50 [24]: > 122 µM; IC50 [25]: > 122 µM; MIC90 [26]: 0.05 µM; MIC90 combined ([26]; in the combination 5b + RFP): 0,00098 µM; MIC90 combined ([26]; in the combination 5n + RFP): 0,00098 µM; inhibition of bacterial load within macrophages [27]: 0.7 log10; reduction of the pulmonary load [28]: 1.23 log10 CFU/mL; reduction of bacterial load in the lungs [28]: 1.23 log10
C[C@]1(COc2ccc(N3CCC(Oc4ccc(OC(F)(F)F)cc4)CC3)cc2)Cn2cc([N+](=O)[O-])nc2O1 [delamanid]																					intramacrophagic inhibition [29]: 0.7 log₁₀ CFU/mL
O=[N+]([O-])c1cn2c(n1)OC[C@@H](OCc1ccc(OC(F)(F)F)cc1)C2 [pretomanid]																					intramacrophagic inhibition [29]: 0.2 log₁₀ CFU/mL
